Assay results as given in patent US20210277015A1, “OGA INHIBITOR COMPOUNDS” (Janssen Pharmaceutica NV, priority 2018, published 2021).

How the values were obtained:
[1] = molecular target: T1, recombinant human Meningioma Expressed Antigen 5 (MGEA5), also referred to as O-GlcNAcase (OGA) (Homo sapiens, UniProt O60502); test: OGA biochemical assay (inhibition of FM-GlcNAc hydrolysis, fluorescence); conditions: FM-GlcNAc substrate; for IC50: 6 h at room temperature, read-out: Enzymatic hOGA, pIC50 (converted); for Enzymatic Emax (%) / Emax: maximal effect; for Emax: read-out: Enzymatic Emax (%)
T1 construct: Full length OGA enzyme was purchased at OriGene (cat #TP322411); purchased OriGene TP322411
T1 sequence (O60502 1-916): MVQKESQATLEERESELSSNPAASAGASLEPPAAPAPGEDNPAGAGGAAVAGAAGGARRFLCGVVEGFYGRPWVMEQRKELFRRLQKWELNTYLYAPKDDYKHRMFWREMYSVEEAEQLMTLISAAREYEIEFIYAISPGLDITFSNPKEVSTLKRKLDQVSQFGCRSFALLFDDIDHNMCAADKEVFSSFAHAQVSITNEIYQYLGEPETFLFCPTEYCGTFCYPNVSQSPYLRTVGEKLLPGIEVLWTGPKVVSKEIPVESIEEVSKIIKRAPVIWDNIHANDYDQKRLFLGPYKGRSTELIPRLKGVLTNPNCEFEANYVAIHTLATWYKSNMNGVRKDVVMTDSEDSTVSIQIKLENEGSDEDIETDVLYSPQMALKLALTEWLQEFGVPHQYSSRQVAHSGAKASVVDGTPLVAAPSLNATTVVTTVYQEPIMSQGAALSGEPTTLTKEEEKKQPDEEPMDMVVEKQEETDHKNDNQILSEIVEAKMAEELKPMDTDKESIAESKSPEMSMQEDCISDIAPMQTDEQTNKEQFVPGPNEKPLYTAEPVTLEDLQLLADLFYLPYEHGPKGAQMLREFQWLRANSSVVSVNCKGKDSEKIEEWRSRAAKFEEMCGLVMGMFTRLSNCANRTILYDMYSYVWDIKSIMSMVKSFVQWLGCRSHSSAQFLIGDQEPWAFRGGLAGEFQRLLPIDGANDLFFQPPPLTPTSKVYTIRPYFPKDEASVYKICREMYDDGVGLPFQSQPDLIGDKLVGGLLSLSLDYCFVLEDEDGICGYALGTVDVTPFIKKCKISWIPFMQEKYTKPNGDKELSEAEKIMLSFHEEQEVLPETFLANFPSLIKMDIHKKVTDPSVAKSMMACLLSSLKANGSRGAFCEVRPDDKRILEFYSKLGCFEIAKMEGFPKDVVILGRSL
Description: The assay is based on the inhibition of the hydrolysis of fluorescein mono-β-D-N-Acetyl-Glucosamine (FM-GlcNAc) (Mariappa et al. 2015, Biochem J 470:255) by the recombinant human Meningioma Expressed Antigen 5 (MGEA5), also referred to as O-GlcNAcase (OGA). The hydrolysis FM-GlcNAc (Marker Gene technologies, cat #M1485) results in the formation of β-D-N-glucosamineacetate and fluorescein. The fluorescence of the latter can be measured at excitation wavelength 485 nm and emission wavelength 538 nm. An increase in enzyme activity results in an increase in fluorescence signal. Full length OGA enzyme was purchased at OriGene (cat #TP322411). The enzyme was stored in 25 mM Tris.HCl, pH 7.3, 100 mM glycine, 10% glycerol at −20° C. Thiamet G and GlcNAcStatin were tested as reference compounds (Yuzwa et al. 2008 Nature Chemical Biology 4:483; Yuzwa et al. 2012 Nature Chemical Biology 8:393). The assay was performed in 200 mM Citrate/phosphate buffer supplemented with 0.005% Tween-20. 35.6 g Na2HPO4 2 H2O (Sigma, #C0759) were dissolved in 1 L water to obtain a 200 mM solution. 19.2 g citric acid (Merck, #1.06580) was dissolved in 1 L water to obtain a 100 mM solution. pH of the sodium phosphate solution was adjusted with the citric acid solution to 7.2. The buffer to stop the reaction consists of a 500 mM Carbonate buffer, pH 11.0. 734 mg FM-GlcNAc were dissolved in 5.48 mL DMSO to obtain a 250 mM solution and was stored at −20° C. OGA was used at a 2 nM concentration and FM-GlcNAc at a 100 uM final concentration. Dilutions were prepared in assay buffer.
50 nl of a compound dissolved in DMSO was dispensed on Black Proxiplate™ 384 Plus Assay plates (Perkin Elmer, #6008269) and 3 μl fl-OGA enzyme mix added subsequently. Plates were pre-incubated for 60 min at room temperature and then 2 μl FM-GlcNAc substrate mix added. […] Plates were briefly centrifuged for 1 min at 1000 rpm and incubate at room temperature for 6 h. To stop the reaction 5 μl STOP buffer were added and plates centrifuge again 1 min at 1000 rpm. Fluorescence was quantified in the Thermo Scientific Fluoroskan Ascent or the PerkinElmer EnVision with excitation wavelength 485 nm and emission wavelength 538 nm.
For analysis a best-fit curve is fitted by a minimum sum of squares method. From this an IC50 value and Hill coefficient was obtained. High control (no inhibitor) and low control (saturating concentrations of standard inhibitor) were used to define the minimum and maximum values.

[2] = molecular target: T2, OGA (Homo sapiens, UniProt O60502); test: OGA cellular assay (ICC detection of O-GlcNAcylated proteins in HEK293 cells inducible for P301L mutant human Tau); type: cell-based; conditions: for Emax: HEK293, HEK293 cells inducible for P301L mutant human Tau; for Emax / Cellular Emax (%): maximum defined by Thiamet G at 200 uM; for EC50 / Cellular Emax (%) / Cellular hOGA; pEC50: HEK293 cells inducible for P301L mutant human Tau; for EC50 / Cellular hOGA; pEC50: 6 hours incubation, ICC O-GlcNAcylation; for EC50: read-out: Cellular hOGA, pEC50 (converted)
T2 construct: endogenous in cells; host or cells: HEK293 cells inducible for P301L mutant human Tau (isoform 2N4R)
T2 sequence (O60502 1-916): T1 sequence (O60502 1-916)
Procedure: HEK293 cells inducible for P301L mutant human Tau (isoform 2N4R) were established at Janssen. Thiamet-G was used for both plate validation (high control) and as reference compound (reference EC50 assay validation). OGA inhibition is evaluated through the immunocytochemical (ICC) detection of O-GlcNAcylated proteins by the use of a monoclonal antibody (CTD110.6; Cell Signaling, #9875) detecting O-GlcNAcylated residues as previously described (Dorfmueller et al. 2010 Chemistry & biology, 17:1250). Inhibition of OGA will result in an increase of O-GlcNAcylated protein levels resulting in an increased signal in the experiment. Cell nuclei are stained with Hoechst to give a cell culture quality control and a rough estimate of immediate compounds toxicity, if any. ICC pictures are imaged with a Perkin Elmer Opera Phenix plate microscope and quantified with the provided software Perkin Elmer Harmony 4.1.
Cells were propagated in DMEM high Glucose (Sigma, #D5796) following standard procedures. 2 days before the cell assay cells are split, counted and seeded in Poly-D-Lysine (PDL) coated 96-wells (Greiner, #655946) plate at a cell density of 12,000 cells per cm^2 (4,000 cells per well) in 100 μl of Assay Medium (Low Glucose medium is used to reduce basal levels of GlcNAcylation) (Park et al. 2014 The Journal of biological chemistry 289:13519). At the day of compound test medium from assay plates was removed and replenished with 90 μl of fresh Assay Medium. 10 μl of compounds at a 10 fold final concentration were added to the wells. Plates were centrifuged shortly before incubation in the cell incubator for 6 hours. DMSO concentration was set to 0.2%. Medium is discarded by applying vacuum. For staining of cells medium was removed and cells washed once with 100 μl D-PBS (Sigma, #D8537). From next step onwards unless other stated assay volume was always 50 μl and incubation was performed without agitation and at room temperature. Cells were fixed in 50 μl of a 4% paraformaldehyde (PFA, Alpha aesar, #043368) PBS solution for 15 minutes at room temperature. […] Before analysis samples were washed 2 times manually for 5 minutes in ICC base buffer.
Imaging is performed using Perkin Elmer Phenix Opera using a water 20× objective and recording 9 fields per well. Intensity readout at 488 nm is used as a measure of O-GlcNAcylation level of total proteins in wells. To assess potential toxicity of compounds nuclei were counted using the Hoechst staining. IC50-values are calculated using parametric non-linear regression model fitting. As a maximum inhibition Thiamet G at a 200 uM concentration is present on each plate. In addition, a concentration response of Thiamet G is calculated on each plate.

Row | Compound | IC50 [1] [nM] | Enzymatic Emax (%) [1] [%] | Emax [2] [%] | EC50 [2] [nM] | Cellular Emax (%) [2] [%] | Cellular hOGA; pEC50 [2] | Emax [1] [%]
1 | CC(c1cc2c(cc1F)OCCO2)N1CC[C@H](Cc2ncc(F)cc2F)C1 (single isomer, unassigned) [Product 29] | 50.1 | 102 | 35 | > 1000 | – | – | –
2 | Cc1cc(C[C@@H]2CCN(C(C)c3cnc4c(c3)OCCO4)C2)cc(C)n1 (single isomer, unassigned) [Product 35] | 7940 | 54 | – | > 1000 | −6 | – | –
3 | Cc1cc(C[C@@H]2CCN(C(C)c3cnc4c(c3)OCCO4)C2)cc(C)n1 (single isomer, unassigned) [Product 36] | 200 | 99 | – | – | 15 | <6 | –
4 | Cc1cc(O[C@@H]2CCN(C(C)c3nc4c(cc3F)OCCO4)C2)cc(C)n1 (single isomer, unassigned) [Product 40] | 7.94 | – | – | 158 | 84 | – | 100
5 | Cc1cc(O[C@@H]2CCN(C(C)c3nc4c(cc3F)OCCO4)C2)cc(C)n1 (single isomer, unassigned) [Product 41] | 1580 | 87 | – | > 1000 | −13 | – | –
6 | Cc1cc(C[C@@H]2CCN(C(C)c3nc4c(cc3F)OCCO4)C2)cc(C)n1 (single isomer, unassigned) [Product 51] | 398 | – | – | > 1000 | 8 | – | 96
7 | Cc1cc(C[C@@H]2CCN(C(C)c3nc4c(cc3F)OCCO4)C2)cc(C)n1 (single isomer, unassigned) [Product 52] | 6.31 | 101 | – | 63.1 | 80 | – | –
8 | CC(c1ccc2c(n1)OCCO2)N1CC[C@@H](Oc2ccc(C#N)nn2)C1 (single isomer, unassigned) [Product 54] | > 10000 | 19 | – | > 1000 | 2 | – | –
9 | CC(c1ccc2c(n1)OCCO2)N1CC[C@@H](Oc2ccc(C#N)nn2)C1 (single isomer, unassigned) [Product 55] | 200 | 94 | – | – | 24 | <6 | –
10 | Cc1cc(O[C@H]2CCN(C(C)c3ccc4c(n3)OCCO4)C2)cc(C)n1 (single isomer, unassigned) [Product 71] | 794 | 99 | – | > 1000 | 9 | – | –
11 | Cc1cc(O[C@H]2CCN(C(C)c3ccc4c(n3)OCCO4)C2)cc(C)n1 (single isomer, unassigned) [Product 72] | > 10000 | 21 | – | – | −8 | <6 | –
12 | Cc1cc(O[C@@H]2CCN(C(C)c3ccc4c(n3)OCCO4)C2)cc(C)n1 (single isomer, unassigned) [Product 74] | 7940 | 50 | – | > 1000 | −9 | – | –
13 | Cc1cc(O[C@@H]2CCN(C(C)c3ccc4c(n3)OCCO4)C2)cc(C)n1 (single isomer, unassigned) [Product 75] | 39.8 | 99 | – | – | 34 | <6 | –
14 | COc1cc(C[C@H]2CCN(C(C)c3nc4c(cc3F)CCO4)C2)cc(C)n1 (single isomer, unassigned) [Product 84] | 3.16 | – | 100 | 15.8 | – | – | 102
15 | COc1cc(CC2(C)CCN(C(C)c3ccc4c(n3)OCCO4)C2)cc(C)n1 (single isomer, unassigned) [Product 95] | 79.4 | – | 39 | > 1000 | – | – | 100
16 | Cc1cc(OC[C@]2(C)CCN([C@H](C)c3ccc4c(n3)OCCO4)C2)cc(C)n1 (single isomer, unassigned) [Product 100] | 2000 | 87 | – | > 1000 | −5 | – | –
17 | Cc1cc(OC[C@]2(C)CCN([C@H](C)c3ccc4c(n3)OCCO4)C2)cc(C)n1 (single isomer, unassigned) [Product 101] | > 10000 | 13 | – | – | −4 | <6 | –
18 | Cc1cc(OC[C@]2(C)CCN([C@H](C)c3ccc4c(n3)OCCO4)C2)cc(C)n1 (single isomer, unassigned) [Product 102] | 398 | 93 | – | – | 7 | <6 | –
